Key:
[1] = Renal clearance in healthy Homo sapiens (human); assay type: ADME, organism-based, Kidney; conditions: in vivo
[2] = Oral bioavailability in older Homo sapiens (human) individuals at 1 mg; assay type: ADME, organism-based; conditions: in vivo
Homo sapiens = species: Homo sapiens; experiment: Distribution half life in Homo sapiens (human); assay type: ADME, organism-based; conditions: in vivo
[3] = Oral bioavailability in healthy Homo sapiens (human) at 1 mg; assay type: ADME, organism-based; conditions: in vivo
[4] = Volume of distribution in Homo sapiens (human); assay type: ADME, organism-based; conditions: in vivo
[5] = Elimination half life in healthy Homo sapiens (human); assay type: ADME, organism-based; conditions: in vivo, read-out: beta t1/2 (converted)

COc1cc2c(c(OC)c1OC)-c1ccc(OC)c(=O)cc1[C@@H](NC(C)=O)CC2 [COLCHICINE]
CL renal [1]: 66.7 mL/min | bioavailability [2]: 45% | alphat1/2 (Homo sapiens): 1 h | bioavailability [3]: 45% | Vd [4]: 7 L/kg | half-life [5]: 14 h
